Publication PMC7297445, “Pharmacokinetic/Pharmacodynamic Determination and Preclinical Pharmacokinetics of the β-Lactamase Inhibitor ETX1317 and Its Orally Available Prodrug ETX0282” (ACS Infectious Diseases, 2020)
“Also recorded” adds a separate entry of the source.

Key:
E. coli NMC101 = assay: Murine neutropenic thigh infection model; type: in vivo, mouse
Experimental: (§1) To further understand whether this in vitro activity translated to in vivo efficacy, an additional neutropenic thigh study was conducted in mice with increasing doses of ETX0282 alone vs E. coli NMC101 (ETX1317 MICBLI = 1 μg/mL) and ARC4419 (ETX1317 MICBLI = 0.25 μg/mL). […] Despite the significant exposure of ETX1317, a 200 mg/kg q6h dose of ETX0282 alone was ineffective for both strains (Table 6).
(§2) In vivo neutropenic infection models in the mouse were conducted as previously described.[48],[49] All procedures were performed to Entasis approved IACUC policies and guidelines as well as OLAW standards. Briefly, Female CD-1 mice (20–22 g, Charles River Laboratories) were acclimated for 5 days prior to start of study. Animals were housed 3 per cage with free access to food and water. Mice were rendered neutropenic via two doses of cyclophosphamide on days −4 and −1 with 150 mg/kg and 100 mg/kg delivered intraperitoneally in a dose volume of 10 mL/kg, respectively.[48]
(§3) Enterobacteriaceae isolates ARC2687, ARC4488, ARC5118, NMC101, and ARC4419 were prepared for infection from an overnight plate culture. A portion of the plate was resuspended in sterile saline and adjusted to an OD of 0.1 at 625 nm. The adjusted bacterial suspension was further diluted to target an infecting inoculum of approximately 5.0 × 10^6–1.0 × 10^7 CFU/mouse. The actual inoculum size varied between 5.5 × 10^6–1.6 × 10^6 CFU/thigh and administered via intramuscular injection of (100 μL). Plate counts of the inoculum were performed to confirm inoculum concentration and treatment was initiated 2 h after bacterial challenge.
(§4) ETX0282 and CPDP were formulated in 0.5% HPMC/0.1% Tween 80 suspension. meropenem (utilized as a positive control) was solubilized in water for injection. All studies utilized a meropenem dosed at 600 mg/kg q6h subcutaneously as positive control against meropenem sensitive isolates (MIC ≤ 2 μg/mL) and as a negative control against meropenem resistant isolates. For dose arms utilizing a combination of ETX0282 and CPDP, both agents were reconstituted in the same vehicle. All dose concentrations were adjusted to deliver targeted mg/kg doses within a dose volume of 10 mL/kg. Formulation potency was verified by LC/MS/MS.
(§5) ETX0282 and CPDP were administered via q6h dose intervals in order to achieve targeted unbound exposures. At 24 h post initiation of therapy, animals were euthanized, tissue samples aseptically collected and homogenized. Bacterial colony enumeration of tissue homogenate was performed by serial dilution on TSA plates which were incubated overnight at 35 °C prior to colony (CFU) counting.

E. coli ARC4419 = assay: Murine neutropenic thigh infection model; type: in vivo, mouse
Experimental: as §1, §2, §3, §4, §5

[1] = Human PK prediction (allometric scaling); conditions: based upon non-clinical PK data
Text: The methodology utilized for prediction of human PK of ETX1317 was consistent with methods used in support of similar chemotypes such as avibactam and ETX2514.[43] Human predictions for volume of distribution (Vd,ss) and clearance (CL) were within 2-fold of observed mean data obtained in Phase 1 studies, with renal clearance as the predominant clearance mechanism.[44],[45] Pharmacokinetic and excretion data from rats, dogs, and monkeys were used collectively for the projection of ETX1317 PK. Liver S9 incubations were also performed across all species (including human) to confirm consistent conversion of ETX0282 to ETX1317 at projected dose levels of ETX0282.[42] Human PK prediction of ETX1317 was completed using single species allometry for volume of distribution from dog PK and dog and monkey single species scaling using liver blood flow to predict non-renal clearance (CLNR).[46] […] While urinary excretion of ETX1317 was lower in dogs relative to monkeys and rats, human renal clearance (CLR) was predicted using dog-human renal correlation,[47] as this method has been highly predictive for compounds that are generally eliminated via renal excretion. The elimination half-life was estimated based upon the combined use of predicted parameters for clearance and volume of distribution, where T1/2 = ln 2*Vd,ss/CLtotal. Allometric scaling predicted human Vd,ss of 0.35 L/kg.
(§6) Based upon the non-clinical PK data, a range of 60–80% bioavailability and a moderate absorption rate of 0.5–1.0 h^–1 have been considered for humans. In consideration of these predicted parameters, mean percent fT > CT of 1 μg/mL (2× MIC of 0.5 μg/mL) estimates for a 500 mg ETX1317 equiv q12h dose of ETX0282 are summarized in Table S3.

K. pneumoniae ARC5118 = assay: Murine neutropenic thigh infection model; type: in vivo, mouse; conditions: 50 mg/kg p.o./q6h
Experimental: as §2, §3, §4, §5

E. coli ARC2687 = assay: Murine neutropenic thigh infection model; type: in vivo, mouse
Experimental: as §2, §3, §4, §5

[2] = Low-dose oral PK of ETX0282 across rats, dogs and monkeys; type: in vivo; conditions: oral 1 to 10 mg/kg
Experimental: Intravenous and oral pharmacokinetics of ETX1317 and ETX0282 in preclinical species are summarized in Table 7 and Table S1, respectively. Time vs concentration profiles are depicted graphically in Figure S1.
as §6
Intravenous pharmacokinetics of ETX1317 investigated in jugular vein cannulated male Sprague–Dawley rats (Charles River Laboratories, n = 3/route) at a dose of 10 mg/kg formulated in 0.9% saline. Oral pharmacokinetics of ETX0282 was evaluated at a 10 mg/kg equivalent dose of ETX1317 formulated in 25:75 PEG 400:WFI. The pH of each formulation was verified to fall within a range of 4–7 and were confirmed to be in solution prior to dosing. Potency was verified by LC/MS/MS. Dose volumes were 5 and 10 mL/kg for ETX1317(i.v.) and ETX0282(p.o.), respectively for rats. In both dog (male, 3/route) and monkey (male, 3/route) studies, i.v. and p.o. doses were formulated on 25:75 PEG 400:WFI (pH ∼5) and administered at a dose of ∼1 mg/kg. Dose volume was 1 mL/kg for both routes in dogs and monkeys with the i.v. dose infused over 15 min. […]

[3] = Mouse oral pharmacokinetics (satellite infected animals); type: in vivo; conditions: after oral administration in mice
[4] = set-up: method as in PMID 32658473; conditions: across all species, including humans; cited from earlier work
[5] = set-up: method as in PMID 9950279; conditions: oral; PEPT1 substrate; cited from earlier work
K. pneumoniae ARC4488 = assay: Murine neutropenic thigh infection model; type: in vivo, mouse; conditions: 50 mg/kg p.o./q6h
Experimental: as §2, §3, §4, §5

[6] = tested on: E. coli strain (ATCC 25922); assay: Murine neutropenic thigh model, CPDP dose range study; type: in vivo, mouse; conditions: 50 mg/kg oral q6h, administered alone
Text: All in vivo efficacy studies were supported with PK of ETX1317 and CPD following oral administration of ETX0282 and CPDP. For the purposes of understanding the exposure-PD response relationship, total systemic concentrations of ETX1317 and cefpodoxime were normalized to unbound drug levels after accounting for protein binding with percent unbound estimates of 93% and 66%, respectively, in mouse plasma (Table S2). An in vivo dose range study with CPDP administered alone against a susceptible E. coli strain (ATCC 25922, CPD MIC = 0.5 μg/mL) was completed initially in a murine neutropenic thigh model to confirm its PK/PD target. In this study a 50 mg/kg oral dose of CPDP administered q6h was consistent with achieving 1–log kill over 24 h. […] Oral exposure was generally dose proportional to 50 mg/kg; however, it became less than dose proportional at ≥200 mg/kg.
as §2, with “Mice were rendered neutropenic via two doses of cyclophosphamide on days −4 and −1 with 150 mg/kg and 100 mg/kg delivered intraperitoneally in a dose volume of 10 mL/kg, respectively.[48]” left out

[7] = ETX0282 alone 200 mg/kg q6h, combination 50:50 mg/kg q6h

SMILES	log10 CFU/g thigh change 24 h post therapy initiation (E. coli NMC101; 10 mg/kg p.o./q6h)	log10 CFU/g thigh change 24 h post therapy initiation (E. coli NMC101; 50 mg/kg p.o./q6h)	log10 CFU/g thigh change 24 h post therapy initiation (E. coli NMC101; 200 mg/kg p.o./q6h)	in vivo efficacy in words (E. coli NMC101; [7])	log10 CFU/g thigh change 24 h post therapy initiation (E. coli ARC4419; 10 mg/kg p.o./q6h)	log10 CFU/g thigh change 24 h post therapy initiation (E. coli ARC4419; 50 mg/kg p.o./q6h)	log10 CFU/g thigh change 24 h post therapy initiation (E. coli ARC4419; 200 mg/kg p.o./q6h)	in vivo efficacy in words (E. coli ARC4419; [7])	absorption rate considered for humans [1]	log10 CFU/g thigh change 24 h post therapy initiation (K. pneumoniae ARC5118)	log10 CFU/g thigh change 24 h post therapy initiation (E. coli ARC2687; 10 mg/kg p.o./q6h (footnote c))	circulating levels of intact prodrug [2]	systemic concentrations of intact prodrug [3]	conversion of ETX0282 to ETX1317 in liver S9 [4]	bioavailability [5] [%]	log10 CFU/g thigh change 24 h post therapy initiation (E. coli ARC2687; 50 mg/kg p.o./q6h)	log10 CFU/g thigh change 24 h post therapy initiation (K. pneumoniae ARC4488)	efficacy over 24 h [6]
CC1=C[C@@H](C(N)=O)N2C[C@@H]1N(O[C@H](F)C(=O)OC(C)C)C2=O [ETX0282]	+2.10 log10 CFU/g	+1.83 log10 CFU/g	+1.39 log10 CFU/g	ineffective	+1.41 log10 CFU/g	+1.06 log10 CFU/g	+1.07 log10 CFU/g	ineffective	0.5–1.0 h^–1	+1.31 log10 CFU/g	+2.93 ^c log10 CFU/g	minimal to no levels of ETX0282	No concentrations of intact CPDP and ETX0282 were observed systemically	efficient conversion; also recorded: Extensive and quantitative conversion				
CC1(C)S[C@@H]2[C@H](NC(=O)[C@H](N)c3ccc(O)cc3)C(=O)N2[C@H]1C(=O)O [amoxicillin]															> 70			
COCC1=C(C(=O)OC(C)OC(=O)OC(C)C)N2C(=O)[C@@H](NC(=O)/C(=N\OC)c3csc(N)n3)[C@H]2SC1 (stereo partly shown) [CPDP, cefpodoxime proxetil]		+3.39 log10 CFU/g				+2.23 log10 CFU/g				+2.66 log10 CFU/g			No concentrations of intact CPDP and ETX0282 were observed systemically			+3.61 log10 CFU/g	+3.58 log10 CFU/g	1–log kill
